Test results: PubChem BioAssay (NCI)
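Exposure lasted 48 hours, with cells grown in 96-well plates and compounds tested at five concentrations. Abbreviation: GI50, concentration required for 50% inhibition of growth. At the TGI there is no net growth.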

Columns and labels:
Experiment in all cases: DTP human tumour cell line panel, 48 h
[1] = test system: 786-0 renal
[2] = test system: A498 renal
[3] = test system: A549 NSCLC
[4] = test system: ACHN renal
[5] = test system: BT-549 breast
[6] = test system: CAKI-1 renal
[7] = test system: CCRF-CEM leukemia
[8] = test system: DU-145 prostate
[9] = test system: EKVX NSCLC
[10] = test system: HCC-2998 colon
[11] = test system: HCT-116 colon
[12] = test system: HCT-15 colon
[13] = test system: HOP-62 NSCLC
[14] = test system: HOP-92 NSCLC
[15] = test system: HS 578T breast
[16] = test system: HT29 colon
[17] = test system: IGROV1 ovarian
[18] = test system: K-562 leukemia
[19] = test system: KM12 colon
[20] = test system: LOX IMVI melanoma
[21] = test system: M14 melanoma
[22] = test system: MALME-3M melanoma
[23] = test system: MDA-MB-231 breast
[24] = test system: MDA-MB-435
[25] = test system: MDA-N
[26] = test system: MOLT-4 leukemia
[27] = test system: NCI-H226 lung
[28] = test system: NCI-H23 lung
[29] = test system: NCI-H460 lung
[30] = test system: NCI-H522 lung
[31] = test system: NCI/ADR-RES ovarian
[32] = test system: OVCAR-3 ovarian
[33] = test system: OVCAR-4 ovarian
[34] = test system: OVCAR-5 ovarian
[35] = test system: OVCAR-8 ovarian
[36] = test system: PC-3 prostate
[37] = test system: RPMI-8226 leukemia
[38] = test system: RXF 393 renal
[39] = test system: SF-268 CNS
[40] = test system: SF-295 CNS
[41] = test system: SK-MEL-2 melanoma
[42] = test system: SK-MEL-28 melanoma
[43] = test system: SK-MEL-5 melanoma
[44] = test system: SN12C renal
[45] = test system: SNB-19 CNS
[46] = test system: SNB-75 CNS
[47] = test system: SR leukemia
[48] = test system: SW-620 colon
[49] = test system: T-47D breast
[50] = test system: TK-10 renal
[51] = test system: U251 CNS
[52] = test system: UACC-257 melanoma
[53] = test system: UACC-62 melanoma
[54] = test system: UO-31 renal
[55] = test system: COLO 205 colon
[56] = test system: MCF7 breast
[57] = test system: SF-539 CNS
[58] = test system: SK-OV-3 ovarian

Compound: O=C(O)CCCN1CCCCC1
- TGI [1]: > 100 µM
- TGI [2]: > 100 µM
- TGI [3]: > 100 µM
- TGI [4]: > 100 µM
- TGI [5]: > 100 µM
- TGI [6]: > 100 µM
- TGI [7]: > 100 µM
- TGI [8]: > 100 µM
- TGI [9]: > 100 µM
- TGI [10]: > 100 µM
- TGI [11]: > 100 µM
- TGI [12]: > 100 µM
- TGI [13]: > 100 µM
- TGI [14]: > 100 µM
- TGI [15]: > 100 µM
- TGI [16]: > 100 µM
- TGI [17]: > 100 µM
- TGI [18]: > 100 µM
- TGI [19]: > 100 µM
- TGI [20]: > 100 µM
- TGI [21]: > 100 µM
- TGI [22]: > 100 µM
- TGI [23]: > 100 µM
- TGI [24]: > 100 µM
- TGI [25]: > 100 µM
- TGI [26]: > 100 µM
- TGI [27]: > 100 µM
- TGI [28]: > 100 µM
- TGI [29]: > 100 µM
- TGI [30]: > 100 µM
- TGI [31]: > 100 µM
- TGI [32]: > 100 µM
- TGI [33]: > 100 µM
- TGI [34]: > 100 µM
- TGI [35]: > 100 µM
- TGI [36]: > 100 µM
- TGI [37]: > 100 µM
- TGI [38]: > 100 µM
- TGI [39]: > 100 µM
- TGI [40]: > 100 µM
- TGI [41]: > 100 µM
- TGI [42]: > 100 µM
- TGI [43]: > 100 µM
- TGI [44]: > 100 µM
- TGI [45]: > 100 µM
- TGI [46]: > 100 µM
- TGI [47]: > 100 µM
- TGI [48]: > 100 µM
- TGI [49]: > 100 µM
- TGI [50]: > 100 µM
- TGI [51]: > 100 µM
- TGI [52]: > 100 µM
- TGI [53]: > 100 µM
- TGI [54]: > 100 µM

Compound: O=C1c2cccnc2-c2nc(-c3ccc([N+](=O)[O-])cc3)cc3c2c1nc1ccccc13
- GI50 [1]: 10.4 µM
- TGI [1]: 40.1 µM
- GI50 [2]: 24.2 µM
- TGI [2]: 65.5 µM
- GI50 [3]: 2.58 µM
- TGI [3]: 8.3 µM
- GI50 [4]: 5.03 µM
- TGI [4]: 30 µM
- GI50 [5]: 10.4 µM
- TGI [5]: 28.6 µM
- GI50 [6]: 13.8 µM
- TGI [6]: > 100 µM
- GI50 [55]: 5.54 µM
- TGI [55]: 11.9 µM
- GI50 [8]: 2.21 µM
- TGI [8]: 4.88 µM
- GI50 [9]: 10.7 µM
- TGI [9]: 44.6 µM
- GI50 [10]: 8 µM
- TGI [10]: 26.5 µM
- GI50 [11]: 2.56 µM
- TGI [11]: > 26.1 µM
- GI50 [12]: 1.97 µM
- TGI [12]: 8.04 µM
- GI50 [13]: 12.2 µM
- TGI [13]: 28.3 µM
- GI50 [14]: 24 µM
- TGI [14]: 83.6 µM
- GI50 [15]: 4.1 µM
- TGI [15]: 23.6 µM
- GI50 [16]: 11.9 µM
- TGI [16]: 26.3 µM
- GI50 [17]: 7.09 µM
- TGI [17]: 26 µM
- GI50 [18]: 20.7 µM
- TGI [18]: > 100 µM
- GI50 [19]: 3.35 µM
- TGI [19]: 19.4 µM
- GI50 [20]: 2.28 µM
- TGI [20]: > 100 µM
- GI50 [21]: 1.9 µM
- TGI [21]: 4.43 µM
- GI50 [22]: 2.15 µM
- TGI [22]: 6.32 µM
- GI50 [56]: 1.86 µM
- TGI [56]: > 21.5 µM
- GI50 [23]: 7.97 µM
- TGI [23]: > 100 µM
- GI50 [24]: 1.69 µM
- TGI [24]: 3.06 µM
- GI50 [25]: 1.75 µM
- TGI [25]: 3.22 µM
- GI50 [26]: 53.5 µM
- TGI [26]: > 100 µM
- GI50 [27]: 9.63 µM
- TGI [27]: 33.4 µM
- GI50 [28]: 2.51 µM
- TGI [28]: 10.1 µM
- GI50 [29]: 2.34 µM
- TGI [29]: 8.62 µM
- GI50 [30]: 2 µM
- TGI [30]: 6.95 µM
- GI50 [31]: 2.44 µM
- TGI [31]: 10.3 µM
- GI50 [32]: 0.261 µM
- TGI [32]: 1.74 µM
- GI50 [33]: 13.4 µM
- TGI [33]: 30.7 µM
- GI50 [34]: 12.5 µM
- TGI [34]: 27.5 µM
- GI50 [35]: 1.5 µM
- TGI [35]: 6.76 µM
- GI50 [36]: 3.95 µM
- TGI [36]: > 100 µM
- GI50 [37]: 8.88 µM
- TGI [37]: 71.5 µM
- GI50 [38]: 9.37 µM
- TGI [38]: 37.7 µM
- GI50 [39]: 3.08 µM
- TGI [39]: 19.8 µM
- GI50 [40]: 4.47 µM
- TGI [40]: 15.4 µM
- GI50 [57]: 3.05 µM
- TGI [57]: 11.3 µM
- GI50 [41]: 3.3 µM
- TGI [41]: 26.5 µM
- GI50 [42]: 12.7 µM
- TGI [42]: 27.8 µM
- GI50 [43]: 0.825 µM
- TGI [43]: 2.45 µM
- GI50 [58]: 11.4 µM
- TGI [58]: 39 µM
- GI50 [44]: 11.3 µM
- TGI [44]: 25.7 µM
- GI50 [45]: 6.4 µM
- TGI [45]: 18.3 µM
- GI50 [46]: 4.43 µM
- TGI [46]: 12.1 µM
- GI50 [48]: 3.21 µM
- TGI [48]: 15.6 µM
- GI50 [49]: 10.6 µM
- TGI [49]: 54.9 µM
- GI50 [50]: 8.41 µM
- TGI [50]: 24.9 µM
- GI50 [51]: 3.44 µM
- TGI [51]: > 100 µM
- GI50 [52]: 2.21 µM
- TGI [52]: 7.32 µM
- GI50 [53]: 5.43 µM
- TGI [53]: 15.6 µM
- GI50 [54]: 5.1 µM
- TGI [54]: > 66.1 µM

Compound: NC(=O)c1cc2ccccc2c(N=Nc2ccccc2)c1O
- TGI [1]: > 100 µM
- TGI [2]: > 100 µM
- TGI [3]: > 100 µM
- TGI [5]: > 100 µM
- TGI [6]: 69.9 µM
- TGI [7]: > 100 µM
- TGI [55]: > 100 µM
- TGI [8]: > 100 µM
- TGI [9]: > 100 µM
- TGI [11]: > 100 µM
- TGI [12]: > 100 µM
- TGI [13]: > 100 µM
- TGI [14]: > 100 µM
- TGI [15]: > 100 µM
- TGI [16]: > 100 µM
- TGI [17]: > 100 µM
- TGI [18]: > 100 µM
- TGI [19]: > 100 µM
- TGI [20]: > 100 µM
- TGI [21]: > 100 µM
- TGI [22]: > 100 µM
- TGI [23]: > 100 µM
- TGI [24]: > 100 µM
- TGI [25]: > 100 µM
- TGI [26]: > 100 µM
- TGI [27]: > 100 µM
- TGI [28]: > 100 µM
- TGI [30]: > 100 µM
- TGI [31]: > 100 µM
- TGI [32]: > 100 µM
- TGI [33]: > 100 µM
- TGI [34]: > 100 µM
- TGI [35]: > 100 µM
- TGI [36]: > 100 µM
- TGI [37]: > 100 µM
- TGI [38]: > 100 µM
- TGI [39]: > 100 µM
- TGI [40]: > 100 µM
- TGI [41]: > 100 µM
- TGI [42]: > 100 µM
- TGI [43]: > 100 µM
- TGI [58]: > 100 µM
- TGI [44]: > 100 µM
- TGI [45]: > 100 µM
- TGI [46]: > 100 µM
- TGI [47]: > 100 µM
- TGI [48]: > 100 µM
- TGI [49]: > 100 µM
- TGI [50]: > 100 µM
- TGI [51]: 49.2 µM
- TGI [52]: > 100 µM
- TGI [53]: > 100 µM
- TGI [54]: > 100 µM
